Results from patent US20130029942A1, “COMPOUNDS AND THERAPEUTICAL USES THEREOF” (Myrexis, Inc., priority 2003, published 2013).
Read-outs that look alike come from different tables or passages of the source. One block for each molecule: values may come before it.

Tests used:
MCF-7 cells = assay: Cytotoxicity (ATP-lite cell viability), MCF-7; type: cell-based; settings: Homo sapiens, MCF7; MCF-7, 72 hours
Procedure: (§1) Cytotoxicity of compounds in multidrug resistant cells can be determined by administering compounds to cell lines that overexpress the multidrug resistance pump MDR-1 and determining the viability of the cell lines.
(§2) NCI-ADR/Res, MCF-7, P388, and P388/ADR cell lines were obtained from American Type Culture Collection (Manassas, Va.) and maintained in RPMI-1640 media supplemented with 10% FCS, 10 units/ml penicillin and streptomycin, 2 mM Glutamax and 1 mM sodium pyruvate (Invitrogen Corporation, Carlsbad, Calif.). For compound testing, cells were plated in 96 well dishes at a concentration of 1.5×10^4 cells/well. Cells were allowed to adhere to the plate overnight and then incubated with compounds at final concentrations ranging from 0.13 nM to 10 uM for 72 hours. Cell viability was then assessed using the ATP-lite reagent (Perkin Elmer, Foster City, Calif.). Plates were read on a Wallac Topcount luminescence reader (Perkin Elmer, Foster City, Calif.) and the results graphed in Prism software (Graphpad Software, Inc., San Diego, Calif.). Non-linear regression with variable slope analysis was performed to obtain IC50 concentration values.
(§3) Example 1 compound, docetaxel, and vinblastine were tested for their ability to kill multidrug resistant cells by administering the compounds to NCI-ADR/Res, MCF-7 cells, P388 and P388/ADR cells and determining the viability of the cells.

P388/ADR cells = assay: Cytotoxicity (ATP-lite cell viability), MDR-1 over-expressing P388/ADR; type: cell-based; settings: Mus musculus, 72 hours
Procedure: as §1, §2, §3

NCI-ADR/Res cells = assay: Cytotoxicity (ATP-lite cell viability), MDR-1 over-expressing NCI-ADR/Res; type: cell-based; settings: Homo sapiens, 72 hours
Procedure: as §1, §2, §3

P388 cells = assay: Cytotoxicity (ATP-lite cell viability), P388; type: cell-based, murine; settings: Mus musculus; P388, 72 hours
Procedure: as §1, §2, §3

topoisomerase I = molecular target: T1, topoisomerase I (Homo sapiens, UniProt P11387); assay: Topoisomerase I activity assay (relaxation of supercoiled DNA, gel); settings: Form I DNA, varying concentrations, FIG. 2
T1 sequence (P11387 1-765): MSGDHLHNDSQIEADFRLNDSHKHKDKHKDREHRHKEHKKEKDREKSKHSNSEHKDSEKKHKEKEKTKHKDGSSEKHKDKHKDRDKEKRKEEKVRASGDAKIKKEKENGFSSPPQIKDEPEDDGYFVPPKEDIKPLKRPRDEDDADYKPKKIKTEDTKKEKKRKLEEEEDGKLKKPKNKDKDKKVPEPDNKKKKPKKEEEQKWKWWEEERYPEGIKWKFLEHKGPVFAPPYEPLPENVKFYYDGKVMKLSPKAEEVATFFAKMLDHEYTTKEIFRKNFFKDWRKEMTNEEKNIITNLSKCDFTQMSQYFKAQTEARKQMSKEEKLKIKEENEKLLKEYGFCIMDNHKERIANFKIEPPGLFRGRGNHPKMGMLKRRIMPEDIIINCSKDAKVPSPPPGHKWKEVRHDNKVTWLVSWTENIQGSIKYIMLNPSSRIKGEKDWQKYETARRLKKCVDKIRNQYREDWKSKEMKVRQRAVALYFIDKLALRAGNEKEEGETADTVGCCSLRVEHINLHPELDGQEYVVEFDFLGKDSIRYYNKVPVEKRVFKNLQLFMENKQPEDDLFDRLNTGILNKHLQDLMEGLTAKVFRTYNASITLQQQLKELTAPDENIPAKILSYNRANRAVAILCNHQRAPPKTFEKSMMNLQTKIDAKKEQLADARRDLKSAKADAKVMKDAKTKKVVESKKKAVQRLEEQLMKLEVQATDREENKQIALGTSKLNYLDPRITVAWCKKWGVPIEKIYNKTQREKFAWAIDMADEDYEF

[1] = molecular target: tyrosine kinase of Epidermal Growth Factor Receptor (Homo sapiens, UniProt P00533); settings: Bridges et al. 1996; read-out: IC50 EGFR tyrosine kinase; cited from earlier work
Chain of tyrosine kinase of Epidermal Growth Factor Receptor (P00533 25-1210): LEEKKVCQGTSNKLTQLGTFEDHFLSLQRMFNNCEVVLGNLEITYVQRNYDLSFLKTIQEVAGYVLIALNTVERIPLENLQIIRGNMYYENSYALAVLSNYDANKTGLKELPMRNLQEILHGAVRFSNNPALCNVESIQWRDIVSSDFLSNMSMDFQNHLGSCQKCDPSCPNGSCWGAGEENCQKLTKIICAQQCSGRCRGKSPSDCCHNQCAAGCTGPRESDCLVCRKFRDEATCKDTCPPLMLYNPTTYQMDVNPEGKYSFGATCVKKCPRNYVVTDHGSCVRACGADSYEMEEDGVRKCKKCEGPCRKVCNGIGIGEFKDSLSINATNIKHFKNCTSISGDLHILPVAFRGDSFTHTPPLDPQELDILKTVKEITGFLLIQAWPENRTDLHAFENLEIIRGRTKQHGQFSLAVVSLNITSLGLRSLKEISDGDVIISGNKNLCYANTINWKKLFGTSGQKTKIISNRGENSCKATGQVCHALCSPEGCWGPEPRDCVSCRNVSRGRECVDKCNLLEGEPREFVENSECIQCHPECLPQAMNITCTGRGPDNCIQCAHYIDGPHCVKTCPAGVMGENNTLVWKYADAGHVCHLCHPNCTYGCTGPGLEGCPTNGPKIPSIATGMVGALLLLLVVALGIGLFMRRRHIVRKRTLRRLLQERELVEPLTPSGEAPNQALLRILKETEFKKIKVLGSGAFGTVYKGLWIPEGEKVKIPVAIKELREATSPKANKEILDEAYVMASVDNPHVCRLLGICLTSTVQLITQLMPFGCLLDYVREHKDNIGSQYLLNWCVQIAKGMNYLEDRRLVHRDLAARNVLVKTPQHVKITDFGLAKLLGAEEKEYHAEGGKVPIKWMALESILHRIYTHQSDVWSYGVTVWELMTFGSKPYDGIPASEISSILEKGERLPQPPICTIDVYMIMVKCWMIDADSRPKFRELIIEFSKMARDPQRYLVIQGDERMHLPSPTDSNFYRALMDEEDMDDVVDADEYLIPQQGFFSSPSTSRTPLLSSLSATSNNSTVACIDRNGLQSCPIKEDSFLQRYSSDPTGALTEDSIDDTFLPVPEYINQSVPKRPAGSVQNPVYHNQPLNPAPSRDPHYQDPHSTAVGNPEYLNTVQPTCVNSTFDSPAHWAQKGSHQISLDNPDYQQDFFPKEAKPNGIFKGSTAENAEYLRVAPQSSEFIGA

MX-1 cells = assay: Inhibition of cell proliferation (GI50), CellTiter-Glo, MX-1; type: cell-based; settings: Homo sapiens
Procedure: (§4) T-47D, DLD, H1299, MX-1 and SW620 cells were grown and harvested as in Example 262. […] An aliquot of 45 μL of cells was added to a well of a 96-well microtiter plate containing 5 μL of a 10% DMSO in RPMI-1640 media solution without compound as the control sample for maximal cell proliferation (Lmax). The samples were mixed by agitation and then incubated at 37° C. for 48 h in a 5% CO2—95% humidity incubator. After incubation, the samples were removed from the incubator and 25 μL of CellTiter-Glo™ reagent (Promega) was added. The samples were mixed by agitation and incubated at room temeperature for 10-15 min. Plates were then read using a luminescent plate reader (Model SPECTRAfluor Plus, Tecan) to give Ltest values.
(§5) The samples were mixed by agitation and then incubated at 37° C. for 0.5 h in a 5% CO2—95% humidity incubator. After incubation, the samples were removed from the incubator and 25 μL of CellTiter-Glo™ reagent (Promega) was added. The samples were mixed by agitation and incubated at 37° C. for 10-15 min at room temperature in a 5% CO2—95% humidity incubator. Fluorescence was read as above, (LStart) defining luminescence for initial cell number used as baseline in GI50 determinations.

tubulin = tubulin (Bos taurus, UniProt P81947+Q6B856); assay: Inhibition of tubulin polymerization (DAPI fluorescence); type: biochemical; settings: MAP-rich tubulin, 30 minutes at 37° C.
Chain of tubulin (P81947 whole entry): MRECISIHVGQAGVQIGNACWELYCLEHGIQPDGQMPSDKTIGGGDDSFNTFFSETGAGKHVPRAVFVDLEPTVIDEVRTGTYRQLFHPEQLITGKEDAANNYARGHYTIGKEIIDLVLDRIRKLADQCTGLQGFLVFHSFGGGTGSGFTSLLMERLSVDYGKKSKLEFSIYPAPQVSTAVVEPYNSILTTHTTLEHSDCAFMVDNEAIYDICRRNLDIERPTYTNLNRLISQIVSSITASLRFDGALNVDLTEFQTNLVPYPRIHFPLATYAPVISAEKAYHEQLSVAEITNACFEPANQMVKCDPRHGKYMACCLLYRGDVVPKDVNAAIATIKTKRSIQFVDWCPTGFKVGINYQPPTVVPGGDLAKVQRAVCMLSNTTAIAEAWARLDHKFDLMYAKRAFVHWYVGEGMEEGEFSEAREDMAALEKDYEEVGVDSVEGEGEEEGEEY
Chain of tubulin (Q6B856 whole entry): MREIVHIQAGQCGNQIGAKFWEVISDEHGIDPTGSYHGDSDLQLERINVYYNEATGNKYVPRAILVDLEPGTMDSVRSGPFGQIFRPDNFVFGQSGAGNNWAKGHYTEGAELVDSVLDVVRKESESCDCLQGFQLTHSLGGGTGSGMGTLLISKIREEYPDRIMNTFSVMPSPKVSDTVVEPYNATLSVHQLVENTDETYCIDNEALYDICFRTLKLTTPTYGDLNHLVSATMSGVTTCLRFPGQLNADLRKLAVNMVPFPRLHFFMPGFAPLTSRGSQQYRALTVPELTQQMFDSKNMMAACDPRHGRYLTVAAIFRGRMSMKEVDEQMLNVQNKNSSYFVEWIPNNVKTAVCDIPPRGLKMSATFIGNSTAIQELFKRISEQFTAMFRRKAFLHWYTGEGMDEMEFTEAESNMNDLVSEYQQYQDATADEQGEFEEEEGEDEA
Procedure: Lyophilized tubulin (Cytoskeleton #ML113, 1 mg, MAP-rich) was assayed for the effect of the test compound on tubulin polymerization as measured by change in fluorescence for 4′,6-diamidino-2-phenylindole (DAPI) (Barron, D. M. et al. Analytical Biochem., 2003, 315, 49-56). 1 μl of serial dilutions of each test compound (from 100×DMSO stock) was added in 96 well plate format and preincubated for 30 minutes with 94 ul of the non-GTP supplemented tubulin supernatant. 5 μl of DAPI/GTP solution was added to initiate polymerization and incubated for 30 minutes at 37° C. Fluorescence was read with excitation 350 nm, emission wavelength 485 nm on a Tecan Spectraflour Plus. Polymerized tubulin (DMSO and with the tubulin stabilizer Taxol® (paclitaxel)) gives a higher DAPI fluorescence as compared to non-polymerized tubulin (vinblastine and colchicine used to determine baseline).

H1299 cells = assay: Inhibition of cell proliferation (GI50), CellTiter-Glo, H1299; type: cell-based; settings: Homo sapiens, NCI-H1299, 48 h
Procedure: as §4, §5

T-47D cells [2] = assay: Inhibition of cell proliferation (GI50), CellTiter-Glo, T-47D; type: cell-based; settings: Homo sapiens, T47D, 48 h
Procedure: as §4, §5

T-47D cells [3] = assay: Caspase cascade activation / induction of apoptosis in T-47D cells (fluorogenic N-(Ac-DEVD)-N'-ethoxycarbonyl-R110 substrate); type: cell-based, human; settings: Homo sapiens, T47D
DLD cells = assay: Inhibition of cell proliferation (GI50), CellTiter-Glo, DLD; type: cell-based; settings: Homo sapiens, 48 h
Procedure: as §4, §5

SW620 cells = assay: Inhibition of cell proliferation (GI50), CellTiter-Glo, SW620; type: cell-based; settings: Homo sapiens
Procedure: as §4, §5

Topoisomerase II = Topoisomerase II (Homo sapiens, UniProt P11388); assay: Topoisomerase II activity assay (relaxation of supercoiled DNA, gel); settings: 100 μM, pRYG DNA, FIG. 1
Chain of Topoisomerase II (P11388 whole entry): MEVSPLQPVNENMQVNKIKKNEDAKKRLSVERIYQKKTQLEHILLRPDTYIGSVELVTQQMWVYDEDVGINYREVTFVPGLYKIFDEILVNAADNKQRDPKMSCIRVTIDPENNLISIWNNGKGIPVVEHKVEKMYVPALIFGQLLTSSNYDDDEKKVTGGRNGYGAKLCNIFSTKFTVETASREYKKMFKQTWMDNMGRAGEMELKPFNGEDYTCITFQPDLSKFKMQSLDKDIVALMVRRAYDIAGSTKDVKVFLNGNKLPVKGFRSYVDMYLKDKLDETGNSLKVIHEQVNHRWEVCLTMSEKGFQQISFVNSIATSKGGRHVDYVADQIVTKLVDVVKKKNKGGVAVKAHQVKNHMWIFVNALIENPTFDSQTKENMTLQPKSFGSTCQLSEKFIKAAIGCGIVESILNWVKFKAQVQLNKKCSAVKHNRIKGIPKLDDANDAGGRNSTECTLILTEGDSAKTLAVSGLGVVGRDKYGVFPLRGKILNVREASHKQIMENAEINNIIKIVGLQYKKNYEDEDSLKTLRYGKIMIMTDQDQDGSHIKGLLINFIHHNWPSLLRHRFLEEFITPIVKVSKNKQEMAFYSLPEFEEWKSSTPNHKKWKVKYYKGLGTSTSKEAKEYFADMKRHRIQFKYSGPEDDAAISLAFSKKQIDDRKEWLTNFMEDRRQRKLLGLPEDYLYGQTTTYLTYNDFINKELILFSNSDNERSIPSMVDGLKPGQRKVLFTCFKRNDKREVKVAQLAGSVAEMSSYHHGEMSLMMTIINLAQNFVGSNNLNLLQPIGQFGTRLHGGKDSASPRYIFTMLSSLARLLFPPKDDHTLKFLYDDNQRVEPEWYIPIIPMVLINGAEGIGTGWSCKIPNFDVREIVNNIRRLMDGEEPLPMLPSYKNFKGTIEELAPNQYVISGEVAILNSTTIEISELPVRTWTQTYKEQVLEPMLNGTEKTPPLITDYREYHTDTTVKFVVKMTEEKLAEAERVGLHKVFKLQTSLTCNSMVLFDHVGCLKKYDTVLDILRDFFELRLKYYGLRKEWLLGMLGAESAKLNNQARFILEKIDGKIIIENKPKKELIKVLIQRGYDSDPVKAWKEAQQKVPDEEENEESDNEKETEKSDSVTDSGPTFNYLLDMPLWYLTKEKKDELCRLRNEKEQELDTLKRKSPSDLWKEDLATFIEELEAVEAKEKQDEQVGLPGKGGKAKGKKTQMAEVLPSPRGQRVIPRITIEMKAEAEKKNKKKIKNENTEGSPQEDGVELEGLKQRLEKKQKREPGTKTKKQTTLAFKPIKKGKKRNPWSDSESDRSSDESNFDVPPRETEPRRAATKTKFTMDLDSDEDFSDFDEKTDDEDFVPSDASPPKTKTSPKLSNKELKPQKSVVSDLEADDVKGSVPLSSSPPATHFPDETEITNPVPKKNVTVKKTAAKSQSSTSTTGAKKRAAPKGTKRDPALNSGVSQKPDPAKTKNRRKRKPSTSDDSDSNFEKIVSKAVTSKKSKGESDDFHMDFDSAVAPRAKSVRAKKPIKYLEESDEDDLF

[4] = molecular target: T2, Human Type II Topoisomerase (p170 Form) (Homo sapiens, UniProt P11388); assay: Photo-crosslinking of radiolabeled compound to Topoisomerase II (SDS gel, autoradiography); type: binding; settings: 50 nM, 60 minutes at room temperature, UV 254 nm, FIG. 3
T2 construct: purchased TopoGEN, Inc., Columbus, Ohio
T2 sequence (P11388 whole entry): as above
Procedure: 30 Units (15 ul) Human Type II Topoisomerase (p170 Form) (from TopoGEN, Inc., Columbus, Ohio) was incubated with 50 nM radiolabeled Example 102 compound for 60 minutes at room temperature.
Radiolabeled Example 102 compound stock is 16.67 uM, 60 Ci/mmol, 1 mCi/ml American Radiolabeled Chemicals, Inc., St. Louis, Mo. Samples were either UV irradiated (+) with a short wavelength UV Source (254 nm) for 10 minutes at a distance of 3.5 cm or not irradiated (−). 8 ul of 5× sample buffer (150 mM Tris, pH 6.8, 50% glycerol, 1% SDS, 50 mM dithiothreitol, 62 mg/ml bromophenol blue) was added to the samples and boiled for 5 minutes. The entire sample was then loaded onto a 6% Tris-Glycine SDS-gel (10 well, 1.5 mm thickness) (Invitrogen, Carlsbad, Calif.). The gel was stained with 1% Coomassie Brilliant Blue in 40% methanol, 7.5% acetic acid for 2 hours then de-stained in several changes of de-stainer (40% methanol, 7.5% acetic acid). The gel was then incubated in Amplify (Amersham, Piscataway, N.J.) for 30 minutes at room temperature and then dried down on Whatman filter paper at 80° C. for 2 hours on a gel dryer. The dried gel was put on Hyperfilm (Amersham) in a film cassette and placed at −80° C. for 5-7 days.

[5] = MX1, MX-1, 48 h, read-out: GI50
[6] = T-47D, 24 hr, read-out: T-47D (24 hr) EC50
[7] = Table III, time not given, repeats 24 hr or 48 hr T-47D values of Table I, read-out: Caspase activation (EC50 nM)
[8] = SW-620, SW620, 48 h, read-out: GI50

Molecule: CC[C@]1(O)C[C@@H]2CN(CCc3c([nH]c4ccccc34)[C@@](C(=O)OC)(c3cc4c(cc3OC)N(C)[C@H]3[C@@](O)(C(=O)OC)[C@H](OC(C)=O)[C@]5(CC)C=CCN6CC[C@]43[C@@H]65)C2)C1 [Vinblastine, vinblastine]
IC50 (MCF-7 cells): 0.5 nM
IC50 (P388/ADR cells): 2.8 nM
IC50 (NCI-ADR/Res cells): 3 nM
IC50 (P388 cells): 2.6 nM

Molecule: COc1cc([C@@H]2c3cc4c(cc3[C@@H](O[C@@H]3O[C@@H]5CO[C@@H](C)O[C@H]5[C@H](O)[C@H]3O)[C@H]3COC(=O)[C@H]23)OCO4)cc(OC)c1O [VP-16, etoposide, reference compound]
Effect on topoisomerase I-dependent relaxation of supercoiled DNA (topoisomerase I): no apparent effect on topoisomerase I activity

Molecule: COc1cc2nc(C)nc(Nc3cccc(Br)c3)c2cc1OC [R1=Me, R2=3′-Br, R3═H]
IC50 [1]: > 10000 nM

Molecule: CC(=O)O[C@@]12CO[C@@H]1C[C@H](O)[C@@]1(C)C(=O)[C@H](O)C3=C(C)[C@@H](OC(=O)[C@H](O)[C@@H](NC(=O)OC(C)(C)C)c4ccccc4)C[C@@](O)([C@@H](OC(=O)c4ccccc4)[C@H]21)C3(C)C [Docetaxel, docetaxel]
IC50 (MCF-7 cells): 2 nM
IC50 (P388/ADR cells): 127 nM
IC50 (NCI-ADR/Res cells): 410 nM
IC50 (P388 cells): 7 nM

IC50 (tubulin): > 50000 nM
GI50 (H1299 cells; read-out: GI50): > 10000 nM
GI50 (T-47D cells [2]; T-47D, read-out: GI50): > 10000 nM
EC50 (T-47D cells [3]; [6]): > 10000 nM
EC50 (T-47D cells [3]; T-47D, 48 hr, read-out: T-47D (48 hr) EC50): > 10000 nM
EC50 (T-47D cells [3]; [7]): > 10000 nM
GI50 (DLD cells; DLD, read-out: GI50): > 10000 nM
GI50 (SW620 cells; [8]): > 10000 nM
Molecule: COc1ccc(Nc2nc(Cl)nc3ccccc23)cc1 [Example 7, (2-Chloro-quinazolin-4-yl)-(4-methoxy-phenyl)-amine]
GI50 (MX-1 cells; [5]): > 10000 nM

IC50 (tubulin): < 1000 nM
GI50 (H1299 cells; read-out: GI50): 53 nM
GI50 (T-47D cells [2]; T-47D, read-out: GI50): 111 nM
EC50 (T-47D cells [3]; [6]): 6 nM
EC50 (T-47D cells [3]; [7]): 6 nM
GI50 (DLD cells; DLD, read-out: GI50): 89 nM
GI50 (SW620 cells; [8]): 70 nM
Molecule: COc1ccc(N(C)c2nc(Cl)nc3ccccc23)cn1 [Example 36, (2-Chloro-quinazolin-4-yl)-(6-methoxy-pyridin-3-yl)-methyl-amine]
GI50 (MX-1 cells; [5]): 73 nM

Molecule: COc1ccc(N(C)c2nc(Cl)nc3ccccc23)cc1 [Example 1]
GI50 (MX-1 cells; MX1, 48 h): 5 nM
Inhibition of topoisomerase II-dependent relaxation of supercoiled DNA (Topoisomerase II): inhibition of DNA relaxation is substantial
IC50 (MCF-7 cells): 2.9 nM
Effect on topoisomerase I-dependent relaxation of supercoiled DNA (topoisomerase I): no apparent effect on topoisomerase I activity
IC50 (tubulin): < 500 nM
IC50 (P388/ADR cells): 2.7 nM
IC50 (NCI-ADR/Res cells): 1.3 nM
GI50 (H1299 cells): 6 nM
GI50 (T-47D cells [2]): 8 nM
IC50 (P388 cells): 1.1 nM
EC50 (T-47D cells [3]; 24 h, read-out: T-47D (24 hr) EC50 (nM)): 2 nM
EC50 (T-47D cells [3]; read-out: Caspase activation (EC50 nM)): 2 nM
GI50 (DLD cells): 8 nM
GI50 (SW620 cells; SW-620, 48 h): 3 nM

Molecule: Radiolabeled (4-Azido-phenyl)-(2-methyl-quinazolin-4-yl)-methyl-amine [Radiolabeled Example 102 compound]
Binding to Topoisomerase II (crosslink on UV irradiation) [4]: binds sufficiently well to Topoisomerase II to crosslink to the enzyme when photoactivated

Molecule: COc1cc2nc(N)nc(Nc3cccc(Br)c3)c2cc1OC [R1═NH2, R2=3′-Br, R3═H]
IC50 [1]: > 10000 nM
